In test [1] the target is 11-beta-hydroxysteroid dehydrogenase 1 (Mus musculus) (UniProt P50172). As to conditions: at 1 µM.
Description: Inhibition of full-length mouse 11beta-HSD1 expressed in HEK293 microsomal fraction at 1 uM using [3H]cortisone as substrate after 1 hr by scintillation proximity assay relative to control
Test [2] deals with T1, 11-beta-hydroxysteroid dehydrogenase 1 (Mus musculus, UniProt P50172). Kind of test: Inhibition of full-length mouse 11beta-HSD1 expressed in HEK293 microsomal fraction […] after 1 hr by scintillation proximity assay. In general terms: Scintillation proximity formats need no separation of bound from free tracer.
For test [3], the target named is T2, 11-beta-hydroxysteroid dehydrogenase type 2 (Mus musculus, UniProt P51661).
T2 sequence (P51661 whole entry): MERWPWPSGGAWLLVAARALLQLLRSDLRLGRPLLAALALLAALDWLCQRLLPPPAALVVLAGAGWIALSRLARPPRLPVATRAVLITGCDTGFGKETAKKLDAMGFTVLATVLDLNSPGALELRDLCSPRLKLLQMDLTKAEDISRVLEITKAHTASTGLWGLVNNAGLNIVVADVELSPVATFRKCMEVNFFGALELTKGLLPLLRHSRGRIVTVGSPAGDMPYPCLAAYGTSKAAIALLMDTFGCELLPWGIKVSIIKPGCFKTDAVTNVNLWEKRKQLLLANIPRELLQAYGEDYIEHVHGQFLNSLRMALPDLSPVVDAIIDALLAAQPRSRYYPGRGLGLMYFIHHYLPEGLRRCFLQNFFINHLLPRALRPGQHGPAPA
Kind of test: Inhibition of full-length mouse 11beta-HSD2 expressed in HEK293 microsomal fraction […] after 1 hr by scintillation proximity assay.

Test [4] has as its target T1, 11-beta-hydroxysteroid dehydrogenase 1. Kind of test: Inhibition of mouse N-terminal His-tagged 11beta-HSD1 expressed in Escherichia coli using cortisol as substrate by fluorescence-based assay.
Test [5] concerns the target T3, 11-beta-hydroxysteroid dehydrogenase 1 (Homo sapiens, UniProt P28845). Briefly: Inhibition of human N-terminal His-tagged 11beta-HSD1 expressed in Escherichia coli using cortisol as substrate by fluorescence-based assay.
Target sequence in this assay (P28845 whole entry): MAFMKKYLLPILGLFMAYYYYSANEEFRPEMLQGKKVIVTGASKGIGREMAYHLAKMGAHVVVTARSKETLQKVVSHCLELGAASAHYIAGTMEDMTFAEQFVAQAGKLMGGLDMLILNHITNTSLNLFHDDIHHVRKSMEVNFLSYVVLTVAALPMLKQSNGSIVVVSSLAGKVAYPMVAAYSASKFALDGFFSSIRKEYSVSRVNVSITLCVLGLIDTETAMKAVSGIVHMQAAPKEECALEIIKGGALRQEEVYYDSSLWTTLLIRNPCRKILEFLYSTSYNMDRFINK
Test [6] concerns the target T3, 11-beta-hydroxysteroid dehydrogenase 1. Briefly: Inhibition of full-length human 11beta-HSD1 expressed in HEK293 microsomal fraction using [3H]cortisone as substrate after 2 hr by scintillation proximity assay.
Target sequence in this assay (P28845 whole entry): as above
The target is the same in test [7]. The settings on record: HEK293, at 1 µM.
Target sequence in this assay (P28845 whole entry, looked up): as the sequence (P28845 whole entry) above
Description: Inhibition of full-length human 11beta-HSD1 expressed in HEK293 microsomal fraction at 1 uM using [3H]cortisone as substrate after 2 hr by scintillation proximity assay relative to control
The target of test [8] is T4, 11-beta-hydroxysteroid dehydrogenase type 2 (Homo sapiens, UniProt P80365).
T4 sequence (P80365 whole entry): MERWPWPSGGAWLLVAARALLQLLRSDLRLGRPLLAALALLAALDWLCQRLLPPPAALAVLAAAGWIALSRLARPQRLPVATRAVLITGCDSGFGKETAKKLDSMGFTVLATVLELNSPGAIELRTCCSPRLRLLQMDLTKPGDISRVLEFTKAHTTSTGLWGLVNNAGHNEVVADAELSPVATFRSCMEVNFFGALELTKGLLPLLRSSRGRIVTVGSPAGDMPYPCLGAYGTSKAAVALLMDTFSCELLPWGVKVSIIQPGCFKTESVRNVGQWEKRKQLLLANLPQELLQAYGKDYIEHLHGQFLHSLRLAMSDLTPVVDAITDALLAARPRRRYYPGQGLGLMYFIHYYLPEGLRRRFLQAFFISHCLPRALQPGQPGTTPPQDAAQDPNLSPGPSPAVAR
Briefly: Inhibition of full-length human 11beta-HSD2 expressed in HEK293 microsomal fraction using [3H]cortisone as substrate after 2 hr by scintillation proximity assay. In kind it is cell-based.

Some results are limits rather than exact numbers.

One may read the inhibition as the change of the read-out against control, counted positive when it falls. What is called IC50 is the concentration needed to halve the response being measured.

T1 sequence (P50172 whole entry): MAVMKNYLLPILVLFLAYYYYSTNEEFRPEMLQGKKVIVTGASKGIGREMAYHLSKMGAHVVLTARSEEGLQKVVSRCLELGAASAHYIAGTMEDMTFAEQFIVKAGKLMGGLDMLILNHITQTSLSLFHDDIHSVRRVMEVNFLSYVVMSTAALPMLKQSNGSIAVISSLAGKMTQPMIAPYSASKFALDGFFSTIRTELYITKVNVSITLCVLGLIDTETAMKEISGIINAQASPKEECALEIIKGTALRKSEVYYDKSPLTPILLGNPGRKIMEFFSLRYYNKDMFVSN
Chain of 11-beta-hydroxysteroid dehydrogenase 1 (Mus musculus) (P50172 whole entry, looked up): as the sequence (P50172 whole entry) above

For `CC1(C)[C@@H](O)CC[C@]2(C)[C@H]3C[C@@H](O)[C@@H]4[C@@H](CO)CC[C@@]4(C)[C@]3(C)CC[C@@H]12`, the inhibition in test [1] was 57.9%. Moreover, the concentration for half-maximal inhibition (IC50) in test [2] is 0.476 µM; in test [3] it was over 10 µM.
Compound `CC(=O)O[C@H]1CC[C@]2(C)[C@H]3C[C@@H](OC(C)=O)C4=CCC[C@@]4(C)[C@]3(C)CC[C@H]2C1(C)C` registered an inhibition in test [1] of 15.4%.
The same measure, in the same setting: next, `CC(=O)O[C@H]1CC[C@]2(C)[C@H]3C[C@@H](OC(C)=O)[C@@H]4[C@@H](O)CC[C@@]4(C)[C@]3(C)CC[C@H]2C1(C)C`: 13.3%; `CC(=O)[C@H]1CC[C@]2(C)[C@@H]1[C@H](O)C[C@@H]1[C@@]3(C)CC[C@H](O)C(C)(C)[C@@H]3CC[C@]12C`: 27.1%.
With `CC1=CC[C@@]2(CC1O)[C@@H](C(=O)O)CC[C@H]2C(C)C` (stereo partly drawn), the IC50 stood at 0.46 µM in test [4] and 0.013 µM in test [5].
As to `CC(=O)O[C@H]1CC[C@]2(C)[C@H]3C[C@@H](O)[C@@H]4[C@@H](O)CC[C@@]4(C)[C@]3(C)CC[C@H]2C1(C)C`, the inhibition in test [1] came to 79%; in test [7], 51.6%. Moreover, the IC50 is 0.213 µM in test [2], over 10 µM in test [3], 0.994 µM in test [6] and over 10 µM in test [8].
As for `CC1(C)C=CC[C@]2(C)[C@H]3C[C@@H](O)[C@@H]4[C@@H](O)CC[C@@]4(C)[C@]3(C)CC[C@@H]12`, in test [1], the inhibition was 40.9%.
In the case of `CC1(C)[C@@H](O)CC[C@]2(C)[C@H]3C[C@@H](O)[C@]45O[C@H]4CC[C@@]5(C)[C@]3(C)CC[C@@H]12`, in test [1], the inhibition was found to be 16.9%.
With `CCC(=O)CC[C@]1(C)C(=O)[C@H](O)C[C@@H]2[C@@]3(C)CC[C@H](OC(C)=O)C(C)(C)[C@@H]3CC[C@]21C`, the inhibition in test [1] turned out to be 11.5%; in test [7] it was 54.3%. Also, the 50% inhibitory concentration (IC50) in test [6] came out at 0.729 µM; in test [8], 6.26 µM.
With `CC(=O)O[C@H]1CC[C@]2(C)[C@H]3C[C@@H](OC(C)=O)[C@@H]4[C@@H](C(=O)CO)CC[C@@]4(C)[C@]3(C)CC[C@H]2C1(C)C`, the figures for the inhibition in test [1] and in test [7] were 20.1% and 62.6%, respectively. The compound further gave an IC50 in test [6] of 0.488 µM.
In the case of `CC1(C)[C@@H](O)CC[C@]2(C)[C@H]3CC(=O)C4=CCC[C@@]4(C)[C@]3(C)CC[C@@H]12`, the inhibition in test [1] turned out to be 47.4%; in test [7] it was 50.2%. The half-inhibitory concentration (IC50) in test [6] worked out at 1.05 µM; in test [8] it was 9.58 µM.
In test [1], `CC(=O)O[C@H]1CC[C@]2(C)[C@H]3C[C@@H](OC(C)=O)[C@@H]4[C@@H](Cl)CC[C@@]4(C)[C@]3(C)CC[C@H]2C1(C)C` displayed an inhibition of 8.02%.
Consider `CC(=O)O[C@H]1CC[C@]2(C)[C@H]3C[C@@H](OC(C)=O)[C@@H]4[C@@H](C(=O)CCCC(C)C)CC[C@@]4(C)[C@]3(C)CC[C@H]2C1(C)C`, for which the inhibition in test [1] came to 10.8%; in test [7], 81.1%. The compound also displayed an IC50 in test [6] of 0.101 µM.
In turn, `CC(=O)O[C@H]1CC[C@]2(C)[C@H]3C[C@@H](OC(C)=O)[C@@H]4[C@@H](C(=O)CF)CC[C@@]4(C)[C@]3(C)CC[C@H]2C1(C)C` returned an inhibition in test [1] of 11.9%.
`CC1(C)[C@@H](O)CC[C@]2(C)[C@H]3C[C@@H](O)[C@@H]4[C@@H](Cl)CC[C@@]4(C)[C@]3(C)CC[C@@H]12`: the inhibition in test [1] was 35.8%.
`CC1(C)[C@@H](O)CC[C@]2(C)[C@H]3C[C@@H](O)[C@@H]4CCC[C@@]4(C)[C@]3(C)CC[C@@H]12`: the inhibition in test [1] amounted to 58.4%. The 50% inhibitory concentration (IC50) was 0.592 µM in test [2] and over 100 µM in test [3].
In the case of `COCO[C@H]1CC[C@]2(C)[C@H]3C[C@@H](OCOC)[C@@H]4[C@@H](C(C)=O)CC[C@@]4(C)[C@]3(C)CC[C@H]2C1(C)C`, the inhibition in test [1] was 11.5%.
Same read-out and setting: next, `CC1=C2CC[C@]3(C)[C@@H]2[C@@H](C[C@@H]2[C@@]4(C)CC[C@H](O)C(C)(C)[C@@H]4CC[C@]23C)OCO1`: 15.5%.
In the case of `CC(=O)O[C@H]1CC[C@]2(C)[C@H]3C[C@@H](OC(C)=O)[C@@H]4[C@@H](C(C)=O)CC[C@@]4(C)[C@]3(C)CC[C@H]2C1(C)C`, the figures for the inhibition in test [1] and in test [7] were 40.9% and 69.4%, respectively. In test [6], this compound registered an IC50 of 0.244 µM.
For `CC1(C)[C@@H](O)CC[C@]2(C)[C@H]3C[C@H]4OC[C@H]5CC[C@](C)([C@@H]54)[C@]3(C)CC[C@@H]12`, the inhibition in test [1] came out at 44.9%.
`CC(=O)O[C@H]1CC[C@]2(C)[C@H]3C[C@@H](O)[C@@H]4[C@@H](C(C)=O)CC[C@@]4(C)[C@]3(C)CC[C@H]2C1(C)C` returned an inhibition in test [1] of 60.9%. Besides, the values for the IC50 in test [2] and in test [3] were 0.454 µM and over 10 µM, respectively.
Consider `COC(=O)[C@H]1CC[C@]2(C)[C@@H]1[C@H](O)C[C@@H]1[C@@]3(C)CC[C@H](O)C(C)(C)[C@@H]3CC[C@]12C`, for which, in test [1], the inhibition came to 7.69%.
Take `CCC(=O)CC[C@]1(C)C(=O)[C@H](OC(C)=O)C[C@@H]2[C@@]3(C)CC[C@H](OC(C)=O)C(C)(C)[C@@H]3CC[C@]21C`: in test [1], the inhibition is 13.3%.
In turn, `CC(C)CCCC(=O)[C@H]1CC[C@]2(C)[C@@H]1[C@H](O)C[C@@H]1[C@@]3(C)CC[C@H](O)C(C)(C)[C@@H]3CC[C@]12C` showed an inhibition in test [1] of 17.3%.
Regarding `CC1(C)[C@@H](O)CC[C@]2(C)[C@H]3C[C@@H](O)[C@@H]4[C@@H](O)CC[C@@]4(C)[C@]3(C)CC[C@@H]12`, in test [1], the inhibition amounted to 28.2%.
In turn, `CC(=O)[C@]1(O)CC[C@]2(C)[C@@H]1[C@H](O)C[C@@H]1[C@@]3(C)CC[C@H](O)C(C)(C)[C@@H]3CC[C@]12C` yielded an inhibition in test [1] of 65.7%. For the same compound, the IC50 in test [2] was 0.601 µM; in test [3] it was over 10 µM.
Turning to `CC1(C)CCC[C@]2(C)[C@H]3C[C@@H](O)[C@@H]4[C@@H](O)CC[C@@]4(C)[C@]3(C)CC[C@@H]12`, the inhibition in test [1] amounted to 6.25%.
For the compound `CO[C@H]1CC(=O)[C@]2(C)[C@@H]1[C@H](OC(C)=O)C[C@@H]1[C@@]3(C)CC[C@H](O)C(C)(C)[C@@H]3CC[C@]12C`, in test [2], the 50% inhibitory concentration (IC50) worked out at 0.4 µM.
In turn, `CC1(C)[C@@H](O)CC[C@]2(C)[C@H]3C[C@@H](O)C4=CCC[C@@]4(C)[C@]3(C)CC[C@@H]12` gave an inhibition in test [1] of 33.2%.
Same read-out and setting: next, `CC1(C)[C@@H](O)CC[C@]2(C)[C@H]3C[C@@H](O)[C@@H]4[C@@H](C(=O)O)CC[C@@]4(C)[C@]3(C)CC[C@@H]12`: 15.1%.
The same measure, in the same setting: next, `CC(C)(O)[C@@H]1CC[C@]2(C)[C@H](C[C@@H](O)[C@@H]3[C@@H](O)CC[C@]32C)[C@@]1(C)CCCO`: 16.1%.
As to `CC(=O)O[C@H]1CC[C@]2(C)[C@H]3C[C@@H](OC(C)=O)[C@@H]4C(=O)CC[C@@]4(C)[C@]3(C)CC[C@H]2C1(C)C`, the inhibition in test [1] was 12.5%.
Take `CC1(C)[C@@H](O)CC[C@]2(C)[C@H]3C[C@@H](O)[C@@H]4[C@H](O)CC[C@@]4(C)[C@]3(C)CC[C@@H]12`: the inhibition in test [1] is 47%.
`CC(C)(O)[C@@H]1CC[C@]2(C)[C@H](C[C@@H](O)[C@@H]3[C@@H](O)CC[C@]32C)[C@@]1(C)CCC(=O)O` displayed an inhibition in test [1] of 20.8%.
Compound `CC1(C)[C@@H](O)CC[C@]2(C)[C@H]3C[C@@H](O)[C@@H]4[C@@H](C(=O)CO)CC[C@@]4(C)[C@]3(C)CC[C@@H]12` displayed an inhibition in test [1] of 32.2%.
Still for that read-out and setting: next, `CC(=O)OCO[C@@H]1C[C@@H]2[C@@]3(C)CC[C@H](O)C(C)(C)[C@@H]3CC[C@@]2(C)[C@]2(C)CCC(=O)[C@@H]12`: 20.9%; `CC(=O)[C@H]1CC[C@]2(C)[C@@H]1[C@H](O)C[C@@H]1[C@@]3(C)CCC(=O)OC(C)(C)[C@@H]3CC[C@]12C`: 27.6%.
